Assay results reported in patent US11053204B2, “Pyrimidinyloxy benzene derivatives as herbicides” (FMC Corporation, priority 2015, dated 2021).

Columns and labels:
Assay type in all cases: in vivo
[1] = system: barnyardgrass (Echinochloa crus-galli); assay: Test A postemergence, visual injury rating; conditions: 0 is no effect, 100 is complete control; for Barnyardgrass plant response rating: 0 to 100 scale, approximately 10 days
Summary of the method: (§1)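 Visual 0–100 rating (100 = complete control) taken about 10 d post-treatment relative to untreated checks. Preemergence: directed soil spray on sown loam/sand pots. Postemergence: seedlings 2–10 cm, 1–2 leaf. Non-phytotoxic solvent formulation with surfactant.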

[2] = system: pigweed (Amaranthus retroflexus); assay: Test A postemergence, visual injury rating; conditions: 0 is no effect, 100 is complete control; for Pigweed plant response rating: 0 to 100 scale, approximately 10 days
Summary of the method: as §1

[3] = system: galium (catchweed bedstraw, Galium aparine); assay: Test A postemergence, visual injury rating; conditions: 0 is no effect, 100 is complete control; for Galium plant response rating: 0 to 100 scale, approximately 10 days
Summary of the method: as §1

[4] = system: wheat (Triticum aestivum); assay: Test A postemergence, visual injury rating; conditions: 0 is no effect, 100 is complete control; for Wheat plant response rating: 0 to 100 scale, approximately 10 days
Summary of the method: as §1

[5] = system: blackgrass (Alopecurus myosuroides); assay: Test A postemergence, visual injury rating; conditions: 0 is no effect, 100 is complete control; for Blackgrass plant response rating: 0 to 100 scale, approximately 10 days
Summary of the method: as §1

[6] = system: Italian ryegrass (Lolium multiflorum); assay: Test A postemergence, visual injury rating; conditions: 0 is no effect, 100 is complete control; for Ryegrass, Italian plant response rating: 0 to 100 scale, approximately 10 days
Summary of the method: as §1

[7] = system: giant foxtail (Setaria faberii); assay: Test A postemergence, visual injury rating; conditions: 0 is no effect, 100 is complete control; for Foxtail, Giant plant response rating: 0 to 100 scale, approximately 10 days
Summary of the method: as §1

[8] = system: corn (Zea mays); assay: Test A postemergence, visual injury rating; conditions: 0 is no effect, 100 is complete control; for Corn plant response rating: 0 to 100 scale, approximately 10 days
Summary of the method: as §1

[9] = system: ragweed (common ragweed, Ambrosia elatior); assay: Test A postemergence, visual injury rating; conditions: 0 is no effect, 100 is complete control; for Ragweed plant response rating: 0 to 100 scale, approximately 10 days
Summary of the method: as §1

[10] = system: kochia (Kochia scoparia); assay: Test A postemergence, visual injury rating; conditions: 0 is no effect, 100 is complete control; for Kochia plant response rating: 0 to 100 scale, approximately 10 days
Summary of the method: as §1

[11] = system: barnyardgrass (Echinochloa crus-galli); assay: Test B flooded paddy test, plant response rating; conditions: 250 g ai/ha; Flood; scale of 0 to 100 where 0 is no effect and 100 is complete control; 13 to 15 days
Summary of the method: (§2)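 Test compounds are applied straight into paddy water held 3 cm above the soil surface, with that flood maintained for the whole test. After 13 to 15 days in the greenhouse, each species is scored visually relative to controls.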

[12] = system: rice (Oryza sativa); assay: Test B flooded paddy test, plant response rating; conditions: 250 g ai/ha; Flood; scale of 0 to 100 where 0 is no effect and 100 is complete control; 13 to 15 days
Summary of the method: as §2

[13] = system: sedge, umbrella (small-flower umbrella sedge, Cyperus difformis); assay: Test B flooded paddy test, plant response rating; conditions: 250 g ai/ha; Flood; scale of 0 to 100 where 0 is no effect and 100 is complete control; 13 to 15 days
Summary of the method: as §2

[14] = system: ducksalad (Heteranthera limosa); assay: Test B flooded paddy test, plant response rating; conditions: 250 g ai/ha; Flood; scale of 0 to 100 where 0 is no effect and 100 is complete control; 13 to 15 days
Summary of the method: as §2

[15] = system: barnyardgrass (Echinochloa crus-galli); assay: Test A preemergence, visual injury rating; conditions: for Plant response rating, Barnyardgrass: 31 g ai/ha, 0 to 100 scale, 0 no effect, 100 complete control; for Barnyardgrass plant response rating: 0 to 100 scale (0 no effect, 100 complete control)
Summary of the method: as §1

[16] = system: pigweed (Amaranthus retroflexus); assay: Test A preemergence, visual injury rating; conditions: for Plant response rating, Pigweed: 31 g ai/ha, 0 to 100 scale, 0 no effect, 100 complete control; for Pigweed plant response rating: 0 to 100 scale (0 no effect, 100 complete control)
Summary of the method: as §1

[17] = system: Italian ryegrass (Lolium multiflorum); assay: Test A preemergence, visual injury rating; conditions: for Plant response rating, Ryegrass, Italian: 31 g ai/ha, 0 to 100 scale, 0 no effect, 100 complete control; for Ryegrass, Italian plant response rating: 0 to 100 scale (0 no effect, 100 complete control)
Summary of the method: as §1

[18] = system: giant foxtail (Setaria faberii); assay: Test A preemergence, visual injury rating; conditions: for Plant response rating, Foxtail, Giant: 31 g ai/ha, 0 to 100 scale, 0 no effect, 100 complete control; for Foxtail, Giant plant response rating: 0 to 100 scale (0 no effect, 100 complete control)
Summary of the method: as §1

[19] = system: ragweed (common ragweed, Ambrosia elatior); assay: Test A preemergence, visual injury rating; conditions: for Plant response rating, Ragweed: 31 g ai/ha, 0 to 100 scale, 0 no effect, 100 complete control; for Ragweed plant response rating: 0 to 100 scale (0 no effect, 100 complete control)
Summary of the method: as §1

[20] = system: kochia (Kochia scoparia); assay: Test A preemergence, visual injury rating; conditions: for Plant response rating, Kochia: 31 g ai/ha, 0 to 100 scale, 0 no effect, 100 complete control; for Kochia plant response rating: 0 to 100 scale (0 no effect, 100 complete control)
Summary of the method: as §1

| Structure (SMILES) | Barnyardgrass plant response rating ([1]; 125 g ai/ha) | Pigweed plant response rating ([2]; 125 g ai/ha) | Galium plant response rating ([3]; 125 g ai/ha) | Wheat plant response rating ([4]; 125 g ai/ha) | Blackgrass plant response rating ([5]; 125 g ai/ha) | Ryegrass, Italian plant response rating ([6]; 125 g ai/ha) | Foxtail, Giant plant response rating ([7]; 125 g ai/ha) | Corn plant response rating ([8]; 125 g ai/ha) | Ragweed plant response rating ([9]; 125 g ai/ha) | Kochia plant response rating ([10]; 125 g ai/ha) | Plant response rating, Barnyardgrass [11] | Plant response rating, Rice [12] | Plant response rating, Sedge, Umbrella [13] | Plant response rating, Ducksalad [14] | Barnyardgrass plant response rating ([15]; 125 g ai/ha) | Pigweed plant response rating ([16]; 125 g ai/ha) | Ryegrass, Italian plant response rating ([17]; 125 g ai/ha) | Foxtail, Giant plant response rating ([18]; 125 g ai/ha) | Ragweed plant response rating ([19]; 125 g ai/ha) | Kochia plant response rating ([20]; 125 g ai/ha) | further results |
| --- | --- | --- | --- | --- | --- | --- | --- | --- | --- | --- | --- | --- | --- | --- | --- | --- | --- | --- | --- | --- | --- |
| CCCCCc1c(C#N)cccc1Oc1ncc(Cl)cn1 [Compound 87] | 100 | 60 | 70 | 30 | 70 | 30 | 90 | 50 | 0 | 100 | 50 | 35 | 100 | 100 | 100 | 100 | 20 | 100 | 0 | 90 | Barnyardgrass plant response rating ([1]; 31 g ai/ha): 40; Pigweed plant response rating ([2]; 31 g ai/ha): 40; Galium plant response rating ([3]; 31 g ai/ha): 30; Wheat plant response rating ([4]; 31 g ai/ha): 20; Blackgrass plant response rating ([5]; 31 g ai/ha): 10; Ryegrass, Italian plant response rating ([6]; 31 g ai/ha): 0; Foxtail, Giant plant response rating ([7]; 31 g ai/ha): 40; Corn plant response rating ([8]; 31 g ai/ha): 40; Ragweed plant response rating ([9]; 31 g ai/ha): 0; Kochia plant response rating ([10]; 31 g ai/ha): 100; Plant response rating, Barnyardgrass [15]: 70; Plant response rating, Pigweed [16]: 40; Plant response rating, Ryegrass, Italian [17]: 0; Plant response rating, Foxtail, Giant [18]: 60; Plant response rating, Ragweed [19]: 0; Plant response rating, Kochia [20]: 30 |
| O=C(OCCC(F)(F)F)c1cc(Cl)ccc1Oc1ncc(Cl)cn1 [Compound 88] | 0 | 0 | 0 | 0 | 0 | 0 | 0 | 0 | 0 | 0 | 0 | 20 | 0 | 0 | 0 | 0 | 0 | 0 | 0 | 0 | Barnyardgrass plant response rating ([1]; 31 g ai/ha): 0; Pigweed plant response rating ([2]; 31 g ai/ha): 0; Galium plant response rating ([3]; 31 g ai/ha): 0; Wheat plant response rating ([4]; 31 g ai/ha): 0; Blackgrass plant response rating ([5]; 31 g ai/ha): 0; Ryegrass, Italian plant response rating ([6]; 31 g ai/ha): 0; Foxtail, Giant plant response rating ([7]; 31 g ai/ha): 0; Corn plant response rating ([8]; 31 g ai/ha): 0; Ragweed plant response rating ([9]; 31 g ai/ha): 0; Kochia plant response rating ([10]; 31 g ai/ha): 0; Plant response rating, Barnyardgrass [15]: 0; Plant response rating, Pigweed [16]: 0; Plant response rating, Ryegrass, Italian [17]: 0; Plant response rating, Foxtail, Giant [18]: 0; Plant response rating, Ragweed [19]: 0; Plant response rating, Kochia [20]: 0 |
| C=C(C)CCOC(=O)c1c(Br)cccc1Oc1ncc(Cl)cn1 [Compound 90] | 30 | 50 | 20 | 0 | 0 | 0 | 60 | 10 | 0 | 50 | 0 | 0 | 60 | 30 | 40 | 0 | 0 | 70 | 0 | 0 | Barnyardgrass plant response rating ([1]; 31 g ai/ha): 0; Pigweed plant response rating ([2]; 31 g ai/ha): 10; Galium plant response rating ([3]; 31 g ai/ha): 0; Wheat plant response rating ([4]; 31 g ai/ha): 0; Blackgrass plant response rating ([5]; 31 g ai/ha): 0; Ryegrass, Italian plant response rating ([6]; 31 g ai/ha): 0; Foxtail, Giant plant response rating ([7]; 31 g ai/ha): 10; Corn plant response rating ([8]; 31 g ai/ha): 0; Ragweed plant response rating ([9]; 31 g ai/ha): 0; Kochia plant response rating ([10]; 31 g ai/ha): 30; Plant response rating, Barnyardgrass [15]: 0; Plant response rating, Pigweed [16]: 0; Plant response rating, Ryegrass, Italian [17]: 0; Plant response rating, Foxtail, Giant [18]: 10; Plant response rating, Ragweed [19]: 0; Plant response rating, Kochia [20]: 0 |
| C=CCSC(=O)c1c(Br)cccc1Oc1ncc(Cl)cn1 [Compound 91] | 30 | 100 | 70 | 20 | 20 | 0 | 30 | 20 | 0 | 60 | 0 | 20 | 95 | 100 | 90 | 40 | 0 | 70 | 0 | 20 | Barnyardgrass plant response rating (0 to 100 scale) ([1]; 500 g ai/ha): 100; Pigweed plant response rating (0 to 100 scale) ([2]; 500 g ai/ha): 100; Galium plant response rating (0 to 100 scale) ([3]; 500 g ai/ha): 90; Wheat plant response rating (0 to 100 scale) ([4]; 500 g ai/ha): 30; Blackgrass plant response rating (0 to 100 scale) ([5]; 500 g ai/ha): 30; Ryegrass, Italian plant response rating (0 to 100 scale) ([6]; 500 g ai/ha): 30; Foxtail, Giant plant response rating (0 to 100 scale) ([7]; 500 g ai/ha): 100; Corn plant response rating (0 to 100 scale) ([8]; 500 g ai/ha): 50; Ragweed plant response rating (0 to 100 scale) ([9]; 500 g ai/ha): 20; Kochia plant response rating (0 to 100 scale) ([10]; 500 g ai/ha): 100; Barnyardgrass plant response rating ([15]; 500 g ai/ha): 100; Pigweed plant response rating ([16]; 500 g ai/ha): 100; Ryegrass, Italian plant response rating ([17]; 500 g ai/ha): 80; Foxtail, Giant plant response rating ([18]; 500 g ai/ha): 100; Ragweed plant response rating ([19]; 500 g ai/ha): 0; Kochia plant response rating ([20]; 500 g ai/ha): 100 |
